Assay results from patent US20060281755A1, “SYNERGISTIC MODULATION OF FLT3 KINASE USING AMINOPYRIMIDINES KINASE MODULATORS” (priority 2005, published 2006).
Read-outs that look alike come from different tables or passages of the source.

Experiments:
[1] = tested on: Baf3-FLT3 cells; assay: 72-hour cell proliferation assay and combination index analysis, Baf3-FLT3; assay type: cell-based, murine; conditions: with single sub-IC50 dose of FLT3 inhibitor Compound A (100 nM)
Protocol: Dose responses for the individual compounds alone were determined for each cell line using a standard 72-hour cell proliferation assay (see FIGS. 6.1-6.8). […] Each of these chemically distinct compounds alone has potential for the treatment of disorders related to FLT3, such as FLT3 positive AML. […] The FLT3 inhibitors tested had no effect on THP-1 proliferation. […] (See FIGS. 10.1-10.8 and Tables 1-3, hereafter.)
To statistically evaluate the synergy of a FLT3 inhibitor and an FTI in FLT3 dependent cell lines, dosing combinations were evaluated by the method of Chou and Talalay. See Chou T C, Talalay P. (1984) “Quantitative analysis of dose-effect relationships: the combined effects of multiple drugs or enzyme inhibitors.” Adv Enzyme Regul. 22:27-55. Using this method inhibitors are added simultaneously to cells in a ratio of the IC50 dose of each compound alone. […] Using this method, multiple FTI and FLT3 combinations were evaluated. […]
Combination Index Analysis. To determine growth inhibition synergy of a FTI and FLT3 inhibitor combination based on the method of Chou and Talalay (Chou and Talalay. See Chou T C, Talalay P. (1984) “Quantitative analysis of dose-effect relationships: the combined effects of multiple drugs or enzyme inhibitors.” Adv Enzyme Regul. 22:27-55.), fixed ratio combination dosing with isobolar statistical analysis was performed. […]

[2] = either agent alone or in combination
Protocol: Mice were dosed orally by gavage with vehicle (control group) or compound at various doses twice-daily (b.i.d.) during the week and once-daily (q.d.) on weekends. Dosing was continued for 11 consecutive days, depending on the kinetics of tumor growth and size of tumors in vehicle-treated control mice. If tumors in the control mice reached 10% of body weight (˜2.0 grams), the study was to be terminated. […] During the study, tumor growth was measured three times-a-week (M, W, F) using electronic Vernier calipers. Tumor volume (mm^3) was calculated using the formula […], where L=length (mm) and W=width (shortest distance in mm) of the tumor. […] Mice were closely examined daily at each dose for overt clinical signs of adverse, drug-related side effects. […]
If tumors in the control mice reached ˜10% of body weight (˜2.0 grams), the study was to be terminated. […] During the study, tumor growth was measured three times-a-week (M, W, F) using electronic Vernier calipers. […] Body weight was measured three times-a-week and a loss of body weight >10% was used as an indication of lack of compound tolerability. […]
Dosing was continued for sixteen consecutive days. Tumor growth was measured three times-a-week (Monday, Wednesday, Friday) using electronic Vernier calipers. Body weight was measured three times-a-week and a loss of body weight >10% was used as an indication of lack of compound tolerability.

[3] = tested on: MV4-11 cells; assay: Annexin V staining (apoptosis) in MV4-11 cells; assay type: cell-based, human; conditions: combination (fixed ratio 4:1) versus agent alone, 48 hours
Source text: The ultimate goal of treatment for FLT3 related disorders is to kill the disease causative cells and to cause regression of disease. […] Annexin V binding to phosphotidyl serine that has translocated from the inner leaflet of the plasma membrane to the outer leaflet of the plasma membrane and is a well established way to measure apoptosis of cells. See van Engeland M., L. J. Nieland, et al. (1998) “Annexin V-affinity assay: a review on an apoptosis detection system based on phosphatidylserine exposure.” Cytometry. 31(1):1-9.
After the compound incubations, treated cells were harvested and stained with Annexin V-PE and 7-AAD using the Guava Nexin apoptosis kit according to the protocol in the Biological Activity Measurements section hereafter. Annexin V staining peaks at 60% because cells late in apoptosis begin to fall apart and are considered debris. […] Statistical analysis using the above described method of Chou and Talalay was also performed to determine the synergy of the combination. […] The magnitude of the synergistic induction of apoptosis of MV4-11 cells by the combination of an FTI and a FLT3 inhibitor could not be predicted by those skilled in the art. […]
Annexin V Staining. […] All annexin positive cells were considered apoptotic and percent Annexin positive cells was calculated.

With `Cn1cncc1C(N)(c1ccc(Cl)cc1)c1ccc2c(c1)c(-c1cccc(Cl)c1)cc(=O)n2C` (single isomer, unassigned; (+)) [Tipifarnib, (+)-6-[amino(4-chlorophenyl)(1-methyl-1H-imidazol-5-yl)methyl]-4-(3-chlorophenyl)-1-methyl-2(1H)-quinolinone] the “increase in potency of Tipifarnib” value [1] was “more than 3 fold”, the overt toxicity ([2]; 9-day treatment) was “No overt toxicity” and the overt toxicity ([2]; 16-day treatment) was “No overt toxicity”. The “shift of EC50 for the induction of annexin V staining” value [3] was “more than eight-fold”.
